Results: patent publication US20140194373A1, “COSMETIC USE OF […] A DERIVATIVE THEREOF IN THE PREVENTION AND/OR TREATMENT OF BODY ODOUR” (NESTEC S.A., priority 2011, published 2014)

Tested on: dermicidin
Assay: Differential proteomic analysis (iTRAQ) of stratum corneum varnish strips after oral supplementation, randomized double-blind study
Type: in vivo, women
Conditions: 500 mg of hesperidin per day, samples at D1 and D168, left leg, compared with placebo maltodextrin, n=33 per group
Experimental: The test product consists of hesperidin and is administered orally.
The active agent was tested alone in a randomized double-blind study.
66 women were divided into two groups, one of these groups testing maltodextrin (n=33 group A), the other testing hesperidin (n=33 group B).
The supplementation was 500 mg of hesperidin per day.
The evolution of various cutaneous markers was studied by proteomics on samples of isolated stratum corneum as indicated hereinbelow.
A sample is taken at times D1 and D168 with varnish strips in order to remove only part of the stratum corneum, i.e. at most the first 4 to 5 layers of stratum corneum.
To do this, a 41 μm Nylon filter gauze of Millipore NY41 type is applied to a predefined area of the left leg. […]
These skin samples (varnish strips of stratum corneum) were then analysed by proteomics by means of an “isobaric marking” technique to evaluate the expression of the protein(s) under study. […]
The marked peptides are detected by mass spectrometry with the intrinsic mass of the peptide +145 Da, originating from the reagent. In the peptide fragmentation step, the contribution of each of the reagents is assessed by the release of ions (fragments) having different specific masses. […]

In the case of `COc1ccc([C@@H]2CC(=O)c3c(O)cc(O[C@@H]4O[C@H](CO[C@@H]5O[C@@H](C)[C@H](O)[C@@H](O)[C@H]5O)[C@@H](O)[C@H](O)[C@H]4O)cc3O2)cc1O` [hesperidin, (S)-7-[[6-0-(6-deoxy-α-L-mannopyranosyl)-β-D-glucopyranosyl]oxy]-2,3-dihydro-5-hydroxy-2-(3-hydroxy-4-methoxyphenyl)-4H-1-benzopyran-4-one], the “expression of dermicidin in stratum corneum” value is reported as “significantly stimulates the expression of dermicidin”.
